Data published in ChEMBL document CHEMBL1123684, “Synthesis and biological properties of 9-(trans-4-hydroxy-2-buten-1-yl)adenine and guanine: open-chain analogues of neplanocin A” (1987).
The source made the active and inactive calls. The rule behind the calls is not given here.

Tests used:
[1] = tested on: L1210; assay: Apparent inhibition of incorporation of labeled thymidine into DNA in murine leukemia L1210 cell;No inhibition; format: functional, cell-based; conditions: Mus musculus
[2] = tested on: Human alphaherpesvirus 2; assay: Antiviral activity against herpes simplex virus 2 (HSV 2); Inactive; format: functional, organism-based
[3] = tested on: Human alphaherpesvirus 1; assay: Antiviral activity against herpes simplex virus-1 (HSV 1); Inactive; format: functional, organism-based
[4] = tested on: L1210; assay: Percent inhibition of growth of murine leukemia L1210 cell culture at 1 mM was determined.; format: functional; conditions: Mus musculus
[5] = tested on: Vesicular stomatitis virus; assay: Antiviral activity against vesicular stomatis virus (VSV); Inactive; format: functional, organism-based

| Compound | Activity [1] | Activity [2] | Activity [3] | inhibition at 1000 µM [4] [%] | Activity [5] |
| --- | --- | --- | --- | --- | --- |
| Nc1ccn([C@@H]2O[C@H](CO)[C@@H](O)[C@@H]2O)c(=O)n1 | inactive | – | – | – | – |
| Nc1ncnc2c1ncn2[C@@H]1C=C(CO)[C@@H](O)[C@H]1O [NEOPLANOCIN A] | – | inactive | inactive | 50 | inactive |
| Nc1nc(O)c2ncn([C@@H]3C=C(CO)[C@@H](O)[C@H]3O)c2n1 | – | inactive | inactive | 50 | inactive |
